Assay results: paper PMC7591920, “A protein tertiary structure mimetic modulator of the Hippo signalling pathway” (Nature Communications, 2020)
Bridge positions count the residues as written; N and C are the ends. Peptide text beside a SMILES is read from it.

What was measured:
GST-hTEAD1 = biological target: T1, GST-hTEAD1 (Homo sapiens, UniProt P28347); experiment: SPR binding to immobilised GST-hTEAD1; conditions: GST-hTEAD1 amine-coupled on CM5, multi-cycle, steady-state fit 1:1 model, 10 mM HEPES 150 mM NaCl 0.05% Tween-20 pH 7.4, 0.3% DMSO, 20 °C, Fig. 1 values n = 1 replicate
T1 construct: CDNA of hTEAD1(209–426) fused with an N-terminal GST tag; made in house; host or cells: Escherichia coli BL21 DE3 RIL(K+)
Description: (§1) Sensor chips Series S CM5 (Research grade) were obtained from GE Healthcare. Prior to use, the sensor chips were equilibrated at room temperature for 15 min to prevent water condensation on the detector side of the sensor chip surface. A running buffer was prepared composed of 10 mM HEPES, 150 mM NaCl, and 0.05% (w/v) Tween-20, pH 7.4, and the system was equilibrated at 20 °C using a flow rate of 30 µL min^−1 after docking of the sensor chip. Ligand binding experiments have been performed applying the concept of multi-cycle kinetics. A contact time of 45 s was selected, followed by a 6-min dissociation phase to allow for complete dissociation of the analyte prior to the next cycle. […] Typically, seven concentrations of the analytes have been examined applying a threefold dilution pattern with 30 µM as top concentration. For the analysis, five running buffer blanks were injected to equilibrate the instrument. […] The carboxyl-dextran surface was activated for 7 min with 0.05 M NHS and 0.2 M EDC, followed by an injection of the proteins in 10 mM MES pH 6.4 at a concentration of 30–50 µg mL^−1. […] This was followed by a deactivation of the residual esters by injecting a solution of 0.5 M ethanolamine pH 8.0 for 7 min before engaging in ligand binding experiments. Reference surfaces were prepared accordingly, omitting the injection of protein over the activated reference surface.

mTEAD4 [1] = biological target: T2, mTEAD4 (Mus musculus, UniProt Q62296); experiment: SPR binding to immobilised mTEAD4; conditions: mTEAD4 amine-coupled on CM5, multi-cycle, steady-state fit 1:1 model, 10 mM HEPES 150 mM NaCl 0.05% Tween-20 pH 7.4, 0.3% DMSO, 20 °C, Fig. 1 values n = 1 replicate
T2 construct: Mouse TEAD4(210–427) cDNA fused with a 6x His-tag and a 3C protease cleavage site; 6x His-tag; 3C protease cleavage site; made in house; host or cells: E. coli BL21 DE3 RIL(K+)
Description: as §1

[2] = Circular dichroism, calculated helicity; assay type: physicochemical; conditions: 10 mM sodium phosphate pH 7.4, 75 to 10 µM peptide, CDNN software PEPFIT mode, unbound peptide
Description: The spectra were obtained using a Jasco J-715 and a cuvette 0.1 mm. Represented CD spectra are an average of five measurements done between λ = 190 and 300 nm with a continuous scan mode, 50 nm min^−1 scan speed and data point every 1 nm. The α-helicity was calculated using CDNN software using the PEPFIT mode[42].

mTEAD4 [3] = biological target: T2, mTEAD4; experiment: Competition fluorescence polarization with mTEAD4 (alanine scan); assay type: binding; conditions: Ac-peptide vs FITC-labelled tracer peptide 10 nM, mTEAD4 400 nM, 1 h
Description: Competition FP: N-terminally acetylated peptides were diluted 1:1 in a 384-well plate (5 μL, 75 μM−9 pM). Ten microlitres of a mixture (1:1) of mTEAD4 and FITC-labelled peptide was added (final concentrations: acetylated peptides = 50 μM−6 pM; mTEAD4 protein = 400 nM; FITC-labelled tracer peptide = 10 nM). After 1 h, FP was measured (λ(ex) = […]). IC50 was determined from the binding curve with GraphPad from Prism.

hTEAD1 = biological target: T3, hTEAD1 (Homo sapiens, UniProt P28347); experiment: Direct fluorescence polarization with hTEAD1; assay type: binding; conditions: direct FP, fluorescent cofactor 10 nM titrated with hTEAD1, 1 h; triplicates; read-out: FP hTEAD1 Kd of FITC labelled cofactor
T3 construct: CDNA of hTEAD1(209–426) fused with an N-terminal GST tag; GST (N); 6x His-tag (N); 3C protease cleavage site (N); made in house; host or cells: Escherichia coli BL21 DE3 RIL(K+)
Description: Supplementary Figure 15│ Binding studies of hTEAD1 by fluorescence polarization. Dissociation constants were measured […]
The fluorescent cofactor (10 nM) are directly titrated with hTEAD1. After 1 hour of incubation, fluorescence polarization was measured, and a non-linear fitting was applied to the curves to determine the […]
In the competitive binding assay, first a complex with the fluorescent cofactor (10 nM) and hTEAD1 (100 nM) was formed and after 1 hour of incubation, the unlabelled peptide was titrated. After 1 hour of incubation, fluorescence polarization was measured, and a non-linear fitting was applied to the curves to determine the half maximal inhibitory concentration. (c) Competition assay […]
Mean ± SEM of triplicates were plotted for all data. Source data are provided as a Source Data file.
(1 picture or pasted object on this page, not shown here)

T2 sequence (Q62296 210-427): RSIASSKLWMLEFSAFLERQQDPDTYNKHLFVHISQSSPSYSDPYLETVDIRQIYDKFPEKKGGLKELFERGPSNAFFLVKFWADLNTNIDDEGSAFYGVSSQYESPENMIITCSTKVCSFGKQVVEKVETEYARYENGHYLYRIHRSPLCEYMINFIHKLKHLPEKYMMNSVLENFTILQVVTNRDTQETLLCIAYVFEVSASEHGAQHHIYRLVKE
T1 sequence (P28347 209-426): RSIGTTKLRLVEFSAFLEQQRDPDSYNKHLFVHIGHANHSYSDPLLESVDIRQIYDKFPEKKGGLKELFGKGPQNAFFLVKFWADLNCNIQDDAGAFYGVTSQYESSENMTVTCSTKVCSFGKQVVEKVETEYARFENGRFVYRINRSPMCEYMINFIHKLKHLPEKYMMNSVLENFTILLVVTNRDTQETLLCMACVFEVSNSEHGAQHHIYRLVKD
T3 sequence (P28347 209-426): as above

Molecule | Kd (GST-hTEAD1) [µM] | Kd (mTEAD4 [1]) [µM] | Helicity (CD) [2] [%] | IC50 (mTEAD4 [3]) [µM] | Kd (hTEAD1) [nM]
CC[C@H](C)[C@@H]1NC(=O)[C@H](CCC(N)=O)NC(=O)[C@H](CC(C)C)NC(=O)[C@H](Cc2c[nH]c3ccccc23)NC(=O)[C@H]([C@@H](C)O)NC(=O)[C@H](CC(=O)O)NC(=O)CNC(=O)[C@H](C)NC(=O)[C@H](C)NC(=O)[C@H](CCCCN)NC(=O)[C@H](C)NC(=O)[C@H](Cc2ccccc2)NC(=O)[C@H](Cc2c[nH]cn2)NC(=O)[C@H](CC(=O)O)NC(=O)[C@@H](NC(=O)[C@@H](NC(=O)[C@H](CO)NC(C)=O)C(C)C)CCC(=O)NCCCC[C@@H](C(=O)N[C@@H](C)C(=O)N[C@@H](C)C(N)=O)NC1=O [compound 20] (Ac-SVEDHFAKAAGDTWLQIKAA-NH2; lactam 3-18) | > 100 | > 100 |  | > 100 | 
CC[C@H](C)[C@@H]1NC(=O)[C@H](CCC(N)=O)NC(=O)[C@H](CC(C)C)NC(=O)[C@H](Cc2c[nH]c3ccccc23)NC(=O)[C@H]([C@@H](C)O)NC(=O)[C@H](C)NC(=O)CNC(=O)[C@H](CC(C)C)NC(=O)[C@H](C)NC(=O)[C@H](CCCCN)NC(=O)[C@H](C)NC(=O)[C@H](Cc2ccccc2)NC(=O)[C@H](Cc2c[nH]cn2)NC(=O)[C@H](CC(=O)O)NC(=O)[C@@H](NC(=O)[C@@H](NC(=O)[C@H](CO)NC(C)=O)C(C)C)CCC(=O)NCCCC[C@@H](C(=O)N[C@@H](C)C(=O)N[C@@H](C)C(N)=O)NC1=O [compound 21] (Ac-SVEDHFAKALGATWLQIKAA-NH2; lactam 3-18) | > 100 | > 100 |  | > 100 | 

Next, values leading:

Kd (GST-hTEAD1) [µM] | Kd (mTEAD4 [1]) [µM] | Helicity (CD) [2] [%] | IC50 (mTEAD4 [3]) [µM] | Kd (hTEAD1) [nM] | Molecule
> 100 | > 100 | < 5 |  |  | CC(=O)N[C@@H](CO)C(=O)N[C@H](C(=O)N[C@@H](CC(=O)O)C(=O)N[C@@H](CC(=O)O)C(=O)N[C@@H](Cc1c[nH]cn1)C(=O)N[C@@H](Cc1ccccc1)C(=O)N[C@@H](C)C(=O)N[C@@H](CCCCN)C(=O)N[C@@H](C)C(=O)N[C@@H](CC(C)C)C(=O)NCC(N)=O)C(C)C [compound 5] (Ac-SVDDHFAKALG-NH2)
> 100 | > 100 |  | > 50 |  | CC[C@H](C)[C@@H]1NC(=O)[C@H](CCC(N)=O)NC(=O)[C@H](CC(C)C)NC(=O)[C@H](Cc2c[nH]c3ccccc23)NC(=O)[C@H]([C@@H](C)O)NC(=O)[C@H](CC(=O)O)NC(=O)CNC(=O)[C@H](CC(C)C)NC(=O)[C@H](C)NC(=O)[C@H](CCCCN)NC(=O)[C@H](C)NC(=O)[C@H](C)NC(=O)[C@H](Cc2c[nH]cn2)NC(=O)[C@H](CC(=O)O)NC(=O)[C@@H](NC(=O)[C@@H](NC(=O)[C@H](CO)NC(C)=O)C(C)C)CCC(=O)NCCCC[C@@H](C(=O)N[C@@H](C)C(=O)N[C@@H](C)C(N)=O)NC1=O [compound 18] (Ac-SVEDHAAKALGDTWLQIKAA-NH2; lactam 3-18)
1.4 | 2 |  |  | 17 ± 2.5 | Ac-DPVVEEHFRRSLGKNYKEPEPAPNSVSITGSVDDHFAKALGDTWLQIKAAKDSA-NH2 (N-terminus and C-terminus assumed) [compound 1]
